Data as given in US4677107A, “Anti-peptic ulcer agent” (Dainippon Pharmaceutical Co., Ltd., priority 1983, dated 1987).
Counter-ions that a name gives are not always drawn. Like-named read-outs stand apart in the source and are kept apart here.

Legend:
[1] = U.S. Pat. No. 4,237,135 and U.K. Pat. No. 2,017,698; cited from earlier work
[2] = U.S. Pat. No. 3,542,785 and 3,668,207; cited from earlier work
[3] = U.S. Pat. No. 3,542,785 and 3,668,207; cited from earlier work; remark: listed apart in the source
[4] = system: ulceration induced by exposure to stress (restraint and water immersion); assay: Effect on the ulceration induced by exposure to stress (restraint and water immersion); type: in vivo, male Wistar strain rats; conditions: for ED50: Rattus norvegicus, po, 30 minutes before immersion, rats, read-out: ED50 (dose required for 50% inhibition of the ulcer index)
Description: [I] Effect on the ulceration induced by exposure to stress (restraint and water immersion): Male Wistar strain rats (weighing, about 200 g) were placed in a stress cage which served to immobilize the animals therein and then immersed in a water bath of 23° C. to the height of xiphoid of the animals according to the method of Takagi et al. [cf. Takagi, K. and Okabe, S., Japan. J. Pharmacol., 18, 9 (1968)]. After 20 hours, the animals were sacrificed and the stomach was removed. The stomach was inflated with 13 ml of saline and placed in 5% formalin solution for 5 minutes. After washing with saline, the stomach was cut open along the greater curvature and the length (mm) of each lesion in the glandular portion was measured using a dissecting microscope (×12). The sum of the length (mm) of each lesions in a stomach was indicated as an ulcer index. In case of reference experiment using butylscopolamine bromide, a photograph of the mucosal surface of stomach was taken after the stomach was treated in the same manner as described above. The photograph was magnified by nine times, and the sum of the area (mm^2) of each lesions in a stomach was indicated as an ulcer index. The ulcer index in drug treated groups was compared with that in control group, and thereby, inhibitory percentage was calculated and then ED50 value, i.e., the dose required for 50% inhibition of the ulcer index, was determined by the usual graphic method. Drugs to be tested were suspended in 0.5% tragacanth solution and administered orally 30 minutes before the immersion. In the control group, a vehicle (0.5% tragacanth solution) was administered.

[5] = system: ulceration induced by pylorus-ligation; assay: Effect on the ulceration induced by pylorus-ligation in rats; type: in vivo, male Wistar strain rats; conditions: for ED50: Rattus norvegicus, po, 30 minutes before ligation, rats, 18 hours, ulcer index 0 to 5, read-out: ED50 (dose required for 50% inhibition of ulcer index)
Description: [II] Effect on the ulceration induced by pylorus-ligation in rats: Male Wistar strain rats (weighing about 190 g) were fasted for 48 hours before experiment. The pylorus of each rat was ligated under ether anaesthesia according to the method of Shay et al. [cf. Shay, H., et al., Gastroenterology, 5, 43-61 (1945)]. Each of the animals was then allowed to stand abstained from food and water in a cage. After 18 hours, the animals were sacrificed under ether anaesthesia, and the stomachs were removed and cut open along the greater curvature. […] 4: marked ulcers more than two 5: perforated ulcer The ulcer index in drug treated groups was compared to that in the control group, and thereby, the inhibitory percentage was calculated and then ED50, i.e. the dose required for 50% inhibition of ulcer index, was determined by the usual graphic method. Drugs to be tested were suspended in 0.5% tragacanth solution and administered 30 minutes before the ligation. In the control group, a vehicle (0.5% tragacanth solution) was administered.

[6] = system: gastric secretion; assay: Effect on gastric secretion in rats (pylorus ligation, total acid content); type: in vivo, male Wistar strain rats; conditions: for ED50: Rattus norvegicus, po, 30 minutes before ligation, rats, 4 hours after ligation, read-out: ED50 (dose required for 50% reduction of acid content)
Description: [III] Effect on gastric secretion in rats: Male Wistar strain rats (weighing, about 200 g) were fasted for 24 hours before experiment. The pylorus was ligated under ether anaesthesia. Four hours after the ligation, the stomach was removed under ether anaesthesia. The gastric content was collected and centrifuged, and the secretory volume, pH and acid content of the supernatant were measured. The acid content was measured by titrating to pH 7.0 with 0.02N NaOH using pH meter (Hitachi Horiba, M-5). The total acid content of the drug treated groups was compared with that of the control group, and thereby, the reduction percentage of acid content was calculated and then ED50, i.e. the dose required for 50% reduction of acid content, was determined by the usual graphic method. Drugs to be tested were suspended in 0.5% tragacanth solution and administered orally 30 minutes before the ligation. In the control group, a vehicle (0.5% tragacanth solution) was administered.

[7] = system: contraction of ileum preparation by acetylcholine; assay: Anti-acetylcholine action (isolated ileum contraction by acetylcholine); parameters: species or system male Hartley guinea-pigs; conditions: for IC50 (50% inhibition concentration), contraction of ileum by acetylcholine: acetylcholine chloride 2×10^-8 g/ml, drug added 2 minutes prior, 35° C.; for anti-acetylcholine activity (in words): isolated guinea-pig ileum
Description: [IV] Anti-acetylcholine action:
A piece of ileum, taken from male Hartley guinea-pigs (weighing 250-350 g) was suspended longitudinally in a bath containing Tyrode solution (20 ml) under constant bubbling of 95% oxygen and 5% carbon dioxide gas at 35° C. The contraction of the preparation by acetylcholine chloride (2×10^-8 g/ml) was recorded on an oscillograph (Nihonkoden, RJG-3004) via an isotonic transducer (Nihonkoden, TD-111S). Drugs to be tested (Compound A and Compound C) were added to the bath 2 minutes prior to the application of acetylcholine chloride. The average percent inhibition of the test Compound A against the contraction of ileum preparation by acetylcholine is shown in the accompanying FIG. 1. Based on the average percent inhibition on the graph, IC50, i.e. 50% inhibition concentration of the test compound, was calculated. […] IC50 of Compound C was calculated likewise. As a result, it was 1.9× 10^-6 g/ml.

[8] = system: pupil size; assay: Mydriatic action in rats; type: in vivo, male Wistar strain rats; conditions: for Percent mydriasis: one hour after administration, 3 mm dilation = 100 percent
From the text: [IV] Mydriatic action in rats:
Male Wistar strain rats (weighing, 150-200 g) were used. Pupil size of the animals was twice measured microscopically just before and one hour after administration of drugs at a distance of 30 cm from the source of a constant light (30 W fluorescent light) according to the method of Pulewka [cf. Arch. exp. Path. U. Pharmakol., 168, 307 (1932)]. Based on the change between the first measured pupil size and the second measured pupil size, mydriasis percentage was calculated provided that mydriasis percentage is supposed to be 100 percent in case of 3 mm dilation of pupil size in diameter. Drugs to be tested were suspended in 0.5% tragacanth solution and administered. In the control group, a vehicle (0.5% tragacanth solution) was administered.

[9] = 1 mg/kg p.o., ulcer index = sum of length (mm) of lesions
[10] = 2 mg/kg p.o., ulcer index = sum of length (mm) of lesions
[11] = 5 mg/kg p.o., ulcer index = sum of length (mm) of lesions
[12] = ulcer index = sum of length (mm) of lesions

| SMILES | anti-inflammatory activity [2] | diuretic activity [3] | Ulcer index Inhibitory % ([5]; 50 mg/kg p.o.) [%] | Ulcer index Inhibitory % ([5]; 100 mg/kg p.o.) [%] | Ulcer index Inhibitory % ([5]; 200 mg/kg p.o.) [%] | ED50 [5] [mg/kg] | Total acid content Reduction % ([6]; 20 mg/kg p.o.) [%] | Total acid content Reduction % ([6]; 50 mg/kg p.o.) [%] | ED50 [6] [mg/kg] | Ulcer index Inhibitory % [4, 9] [%] | Ulcer index Inhibitory % [4, 10] [%] | Ulcer index Inhibitory % [4, 11] [%] | ED50 [4, 12] [mg/kg] | Ulcer index Inhibitory % ([5]; 5 mg/kg p.o.) [%] | Ulcer index Inhibitory % ([5]; 10 mg/kg p.o.) [%] | Ulcer index Inhibitory % ([5]; 20 mg/kg p.o.) [%] | Total acid content Reduction % ([6]; 1 mg/kg p.o.) [%] | Total acid content Reduction % ([6]; 2 mg/kg p.o.) [%] | Total acid content Reduction % ([6]; 5 mg/kg p.o.) [%] | IC50 (50% inhibition concentration), contraction of ileum by acetylcholine [7] [mg/L] | also measured |
| --- | --- | --- | --- | --- | --- | --- | --- | --- | --- | --- | --- | --- | --- | --- | --- | --- | --- | --- | --- | --- | --- |
| CN1CCN(c2cc(-c3ccccc3)c3cc(Cl)ccc3n2)CC1 [6-chloro-2-(4-methyl-1-piperazinyl)-4-phenylquinoline] | have anti-inflammatory activity | diuretic activity | – | – | – | – | – | – | – | – | – | – | – | – | – | – | – | – | – | – | anti-reserpine activity [1]: weak anti-reserpine activity |
| CCCC[N+]1(C)[C@@H]2C[C@@H](OC(=O)[C@H](CO)c3ccccc3)C[C@H]1[C@@H]1O[C@@H]12 (stereo partly shown) [Butylscopolamine bromide, butylscopolamine bromide, reference compound] | – | – | 19.0 | 28.6 | 38.1 | > 200 | 44.3 | 71.0 | 25 | – | – | – | – | – | – | – | – | – | – | – | Ulcer index Inhibitory % ([4]; 20 mg/kg p.o., ulcer index = sum of area (mm^2) of lesions): -2.1%; Ulcer index Inhibitory % ([4]; 50 mg/kg p.o., ulcer index = sum of area (mm^2) of lesions): 44.1%; Ulcer index Inhibitory % ([4]; 100 mg/kg p.o., ulcer index = sum of area (mm^2) of lesions): 97.8%; ED50 ([4]; ulcer index = sum of area (mm^2) of lesions from photograph): 49.1 mg/kg; Total acid content Reduction % ([6]; 100 mg/kg p.o.): 83.7% |
| O=C(O)/C=C\C(=O)O.c1ccc(-c2cc(N3CCNCC3)nc3ccccc23)cc1 [Compound C, 2-(1-piperazinyl)-4-phenylquinoline monomaleate] | – | – | 75.0 | – | – | 14 | – | – | 1.1 | 55.9 | 73.6 | 71.8 | 0.45 | 37.5 | 43.8 | 56.3 | 45.3 | 71.3 | 86.3 | 1.9 | Ulcer index Inhibitory % ([4]; 0.2 mg/kg p.o., ulcer index = sum of length (mm) of lesions): 45.8%; Ulcer index Inhibitory % ([4]; 0.5 mg/kg p.o., ulcer index = sum of length (mm) of lesions): 55.5%; anti-acetylcholine activity (in words) [7]: extremely weak |
| Clc1ccc2nc(N3CCN(c4ccccc4)CC3)cc(-c3ccccc3)c2c1 [6-chloro-2-(4-phenyl-1-piperazinyl)-4-phenylquinoline] | have anti-inflammatory activity | diuretic activity | – | – | – | – | – | – | – | – | – | – | – | – | – | – | – | – | – | – | – |
| CN/C(=N/CCSCc1nc[nH]c1C)NC#N [Cimetidine, reference compound] | – | – | 0 | 9.1 | 42.4 | 253 | 44.0 | 71.6 | 26.8 | – | – | – | 26.9 | – | – | – | – | – | – | – | Ulcer index Inhibitory % ([4]; 20 mg/kg p.o., ulcer index = sum of length (mm) of lesions): 29.1%; Ulcer index Inhibitory % ([4]; 50 mg/kg p.o., ulcer index = sum of length (mm) of lesions): 75.0%; Ulcer index Inhibitory % ([4]; 100 mg/kg p.o., ulcer index = sum of length (mm) of lesions): 77.0%; Ulcer index Inhibitory % ([5]; 500 mg/kg p.o.): 75.8%; Total acid content Reduction % ([6]; 10 mg/kg p.o.): 9.4% |
| CCN1CCN(c2cc(-c3ccccc3)c3ccccc3n2)CC1 [Compound A, 2-(4-ethyl-1-piperazinyl)-4-phenylquinolinedihydrochloride] | – | – | 76.5 | – | – | 16 | – | – | 1.8 | 15.5 | 40.8 | 85.2 | 2.8 | 35.3 | 41.2 | 52.9 | 34.7 | 54.5 | 73.1 | 1.2 | Ulcer index Inhibitory % ([4]; 10 mg/kg p.o., ulcer index = sum of length (mm) of lesions): 88.4%; Total acid content Reduction % ([6]; 0.5 mg/kg p.o.): 18.2%; Percent mydriasis ([8]; 5 mg/kg p.o.): 4.0%; Percent mydriasis ([8]; 10 mg/kg p.o.): 2.7%; Percent mydriasis ([8]; 20 mg/kg p.o.): 2.7%; Percent mydriasis ([8]; 50 mg/kg p.o.): 1.3%; Percent mydriasis ([8]; 100 mg/kg p.o.): 2.6%; mydriatic action (in words) ([8]; rats, up to 100 mg/kg): did entirely not show any mydriatic action even in a dose of 100 mg/kg; anti-acetylcholine activity (in words) [7]: extremely weak |
